Assays:
[1] = preparation and stability of crystal suspensions of microcrystalline rapamycin / everolimus in solutions of different tri-O-acylglycerols (Examples 2, 3); details: ethyl acetate/heptane solution; standing and temperature elevation
From the text: In the first step, solutions of tri-O-acylglycerols were first prepared in a solvent mixture. Subsequently, the solutions were combined with microcrystals of rapamycin and everolimus to investigate which tri-O-acylglycerols could be used to obtain stable crystal suspensions. The composition of the solvents and solvent mixture varied depending on the active agent used. The solutions and solvent mixtures prepared in the example apply to rapamycin (SIR) and everolimus (EVR). For the preparation of the solutions, an ethyl acetate/heptane solvent mixture was used here as an example.
To prepare the solutions, 770 mg of the respective tri-O-acylglycerol and optionally 150 mg BHT were dissolved in 14 g ethyl acetate (15.6 mL). Then, 57.4 g of n-heptane (84.4 mL) was added. Subsequently, homogenization and filtration were performed. The total volume of the solvent mixture is 100 mL.
To a precisely weighed amount of dry microcrystals of the previously prepared limus active agent, a defined amount of the solutions containing tri-O-acylglycerol and optionally antioxidant is carefully added. It was investigated whether the microcrystals of the limus active agent are not soluble in the solutions and whether suspensions are formed.
To check whether crystal suspension can be prepared, to each 200 mg of rapamycin in the form of microcrystals or 200 mg of everolimus in the form of microcrystals were carefully added 10 mL of one of the solutions 1a) to 1t) at room temperature. Three mixtures of 10 mL of solution for each solution were prepared. After combining, it was tested whether the microcrystals of limus active agents dissolved directly in the solutions. For solutions where there was no immediate dissolution of the microcrystals of the limus active agents, the suspensions of the solutions without antioxidant were allowed to stand for a period of 100 h and tested again to see if the microcrystals of the limus active agents dissolved.
Three mixtures of 10 mL of solution for each solution were prepared. After combining, it was tested whether the microcrystals of limus active agents dissolved directly in these solutions. For solutions where there was no immediate dissolution of the microcrystals of the limus active agents, the suspensions of the solutions without antioxidant were allowed to stand for a period of 100 hours and tested again to see if the microcrystals of the limus active agents dissolved.

[2] = cited from earlier work

For `CCCCCCCC(=O)OCC(COC(=O)CCCCCCC)OC(=O)CCCCCCC` [Trioctanoylglycerol, trioctanoylglycerol], the “stability of the crystal suspension of microcrystalline everolimus and rapamycin with the tri-O-acylglycerol” value [1] is given as “remained stable even after 100 h and under temperature elevation” and the solubility in water [2] is given as “practically insoluble in water”.

Reference: US20230414839A1, “COATED MEDICAL PRODUCT” (HEMOTEQ AG, priority 2020, published 2023)
